Data on 80 substances can be found in US20240207422A1, “NERVE TARGETING PEPTIDE CONJUGATES AND METHODS OF USE” (Alume Biosciences, Inc., priority 2022, published 2024).

The experiment relates to excised human nerve tissue. Kind of experiment: Phage display selection on excised human nerve tissue (Nerve2, Nerve3), NextGen sequence counts. Type of experiment: binding. As to conditions: unique sequence count (relative enrichment). The protocol:
Several m13 phage libraries were constructed expressing randomized variants of a parent peptide (QVPWEEPYYVVKKS-SGGL; SEQ ID NO: 576). In particular, the first 14 amino acids of the parent peptide were randomized using degenerate oligonucleotide synthesis to obtain a diverse set of peptides with a mutation rate of about 50% per residue.
To accomplish this, synthesis was carried out by the XXK codon design approach, where X is any base and K is G or T. To bias synthesis towards the parent sequence, synthesis was carried out at each X position with a mixture of about 70%-85% of the parent nucleotide and 15-30% of the remaining 3 nucleotides. The resulting molecules were inserted into fADL-1e (Antibody Design Laboratories), which is a type 3 phage display vector having a cloning site on the N-terminal side of the full-length gene III protein. The fusion proteins are directed to the periplasm by the PelB leader peptide, which is inserted in the vector […].
Collectively, the phage display libraries used in the screens comprised about 600 million peptides, with sequencing analysis confirming a mutation rate of about 50% per residue.
Phage libraries were independently processed, as follows, with five biological samples: two independent samples of excised human nerve tissue, one sample of a human nerve extract, and two independent samples of human muscle tissue, as follows:
Excised Human Nerve Tissue: For each of the two independent samples, phage were processed through multiple cycles of selection, with representative phage being isolated and sequenced after each selection cycle. Specifically, for selection using human nerve tissue, a sample of […] tissue (2 mm by 2 mm) was washed prior to mixing and incubation with a phage library. After incubation, the mixture (containing mostly intact nerves with phage particles that had variable affinity for nerves) was centrifuged and the nerve pellet washed multiple times with PBS to remove phage with little or no affinity for nerve tissue. The pellet was homogenized and plated for titering and reamplification. Phage that were bound at each round were sequenced. NextGen sequencing of pools after 2, 3 and 4 rounds of selection were used to isolate candidate sequences that were further analyzed using bioinformatics.
NextGen sequencing of pools after 2, 3 and 4 rounds of selection were used to isolate candidate sequences from each of the five samples. These five data sets were then analyzed as described in the next section.
Peptide and vector sequences were translated starting at the first start codon in the nucleotide sequence. […] Trimmed peptides with identical sequences were combined and quantified according to their frequency (count).
Following processing, an R script was written to merge the unique peptide sequences (with counts 6 or greater) from the 5 different data sets to analyze the overlap between nerve and muscle binding activity.
For the single Nerve2, Nerve3, and Plated Nerve2 (pn2) subsets, the number of counts for each group was set at a threshold giving rise to at least 100 peptides. […] As highlighted in yellow in FIG. 1B, the representative group also included 6 unique peptides overlapping between nerve2 and nerve3, 200 unique peptides overlapping between nerve2 and plated nerve2 (at least 60 counts), 4 unique peptides overlapping between nerve3 and plated nerve2. Finally, as highlighted in green in FIG. 1B, the representative group also included […] common to the nerve2, nerve3, and plated nerve2 sets.

[1] abbreviates: peptides overlapping between Nerve2 and Plated Nerve2.

Substance 173 (QQRLSASYQHVIKS) [compound 173] displayed a Count under setting [1] of 77. Regarding 174 (HFEGEDLYDRVKSR) [compound 174], under setting [1], the Count came to 76. As for 175 (HVTLEKPYDVATKS) [compound 175], the Count under setting [1] is listed as 76. The substance 176 (QLPGEHPYYPIKKP) [compound 176] displayed a Count under setting [1] of 76. Under setting [1], 177 (EALWYKHYYGVHKT) [compound 177] displayed a Count of 75. Regarding 178 (HVVRHYPPHFVHKS) [compound 178], the Count under setting [1] worked out at 75. 179 (LIPSEERSYAVINT) [compound 179] yielded a Count under setting [1] of 75.

On to 180 (QHTHKQPFNVVKNY) [compound 180], for which the Count under setting [1] was 75. Regarding 181 (VVPSQGTYHVGMTS) [compound 181], the Count under setting [1] came to 75. 182 (AVAWERPYYVVNHS) [compound 182] showed a Count under setting [1] of 74. The substance 183 (DVLLARTYYFGEFP) [compound 183] gave a Count under setting [1] of 74.

Consider 184 (HFAGQEHLHFVEIS) [compound 184], for which the Count under setting [1] came out at 74. Still for that read-out and setting: under 185 (LFAWAEANNVMKNS) [compound 185] stands 74.

In the case of 186 (SITNKQSVYVLKKS) [compound 186], the Count under setting [1] is on record as 73. On the same count and under the same terms, with 187 (HVQSANPYYDVRNS) [compound 187] the figure was 72. With 188 (HVSFDEPYYYVKKS) [compound 188], under setting [1], the Count is reported as 72. Under setting [1], 189 (QDYWAKPSYIVKHS) [compound 189] showed a Count of 72.

Consider 190 (QISLTEATLVVRKS) [compound 190], for which the Count under setting [1] is given as 72.

191 (DVLWEEPRYFVNNS) [compound 191] displayed a Count under setting [1] of 71. 192 (HAHGQETYFLVKQS) [compound 192] displayed a Count under setting [1] of 71. As to 193 (HFALQDPYQVFKKT) [compound 193], the Count under setting [1] is on record as 71.

On to 194 (QYPAERPTFDVTNA) [compound 194], for which, under setting [1], the Count turned out to be 71. Take 195 (SLPMEERYYAVRTA) [compound 195]: under setting [1], the Count was 71. On to 196 (DVEWEEPYYFLEKS) [compound 196], for which, under setting [1], the Count worked out at 70. Regarding 197 (DVTWEEPYYAVKNS) [compound 197], the Count under setting [1] is recorded as 69. The same measure, in the same setting: with 198 (EHPRVESVYLFPHT) [compound 198] the figure was 69; with 199 (HDSLDLHYYAMHES) [compound 199], 69. With 200 (QCPLEESCFDGQKS) [compound 200], the Count under setting [1] was 69. With 201 (QLTWPKQNYTMTQS) [compound 201], the Count under setting [1] turned out to be 69.

Turning to 202 (QLPWGAPYYVVKNS) [compound 202], under setting [1], the Count stood at 68.

In turn, 203 (RLPSEEPYTVAKRP) [compound 203] returned a Count under setting [1] of 68.

Consider 204 (DFPWEQRSSTVKQY) [compound 204], for which the Count under setting [1] is on record as 67. Substance 205 (DHTRVHPYYDFEIP) [compound 205] had a Count under setting [1] of 67.

The substance 206 (HATLQEPYFVVNHY) [compound 206] yielded a Count under setting [1] of 67. On to 207 (HDTWKGPYYPANKS) [compound 207], for which, under setting [1], the Count was found to be 67. On the same count and under the same terms, under 208 (QLPSQEPYNVQRKS) [compound 208] stands 67; under 209 (SVTRYDLSTDVTKS) [compound 209], 67; under 210 (ESQWEQPSDVFKVV) [compound 210], 66. 211 (KLPLEEPFYIVTPS) [compound 211] gave a Count under setting [1] of 66. Still for that read-out and setting: under 212 (QIRWEDASYVEKTS) [compound 212] stands 66; under 213 (QVPWKGQYYVVASS) [compound 213], 66. With 214 (HGPTDGPYYVSKKS) [compound 214], the Count under setting [1] is 65. Same read-out and setting: with 215 (HILRQEPYYVLTNY) [compound 215] the figure was 65; with 216 (HSHGQELFYVVTNT) [compound 216], 65. 217 (HVPWGEPEALVKKS) [compound 217] displayed a Count under setting [1] of 65. On to 218 (QPPREQPYHIMKNS) [compound 218], for which the Count under setting [1] is 65. 219 (QTSWAGPHDRVTKA) [compound 219]: the Count under setting [1] is given as 65. Under setting [1], 220 (QVPCEEPWCLVKVN) [compound 220] had a Count of 65.

Under setting [1], 221 (QVPWQDPVYDVNNA) [compound 221] showed a Count of 65. 222 (YVKTVNPDSVLKIS) [compound 222]: the Count under setting [1] turned out to be 65. Under setting [1], 223 (HVHFTDPHYVMKKS) [compound 223] showed a Count of 64.

In the case of 224 (HVPLQGPYYVKQKP) [compound 224], under setting [1], the Count is reported as 64. Take 225 (NVEWEIPYYFVKKF) [compound 225]: the Count under setting [1] amounted to 64. The substance 226 (QFAWVQPYYFAKKS) [compound 226] came in with a Count under setting [1] of 64.

For the substance 227 (QHPVKERDEFWKES) [compound 227], the Count under setting [1] was 64. Consider 228 (QIPWGETTAGIKKL) [compound 228], for which the Count under setting [1] amounted to 64. Under setting [1], 229 (EFSREQPNDFLNKS) [compound 229] showed a Count of 63. As for 230 (HIPFAEHDGVVPIS) [compound 230], the Count under setting [1] turned out to be 63.

The substance 231 (HVTSHEARYLAQNS) [compound 231] showed a Count under setting [1] of 63.

For the substance 232 (EFTWEGLSEGVNEP) [compound 232], the Count under setting [1] came to 62. The substance 233 (HVSSEYPYYVVKHT) [compound 233] registered a Count under setting [1] of 62. In the case of 234 (HVPAEPLVYENQKS) [compound 234], under setting [1], the Count turned out to be 61. For the substance 235 (LIVSQPSYLAVQYS) [compound 235], under setting [1], the Count was found to be 61. As for 236 (QLPLAKPNSVVATS) [compound 236], the Count under setting [1] is recorded as 61. Under setting [1], 237 (RLAWEEPHYVVKKS) [compound 237] displayed a Count of 61. Consider 238 (KFTTQDSYYFGTQT) [compound 238], for which the Count under setting [1] was 60. Turning to 239 (NVTSREPYHLLEKS) [compound 239], the Count under setting [1] is recorded as 60. Turning to 240 (QLPFIGPYHVAKKS) [compound 240], the Count under setting [1] is listed as 60.

With 241 (HDASGVSYYDRRES) [compound 241], the Count (Nerve2 only) was 21. 242 (HVGLPEPHHVMIHS) [compound 242] displayed a Count (Nerve2 only) of 20. Substance 243 (EVPSLQPYHGGKKS) [compound 243] showed a Count (Nerve2 only) of 19. For the substance 244 (QIPSQEPYHRFKES) [compound 244], the Count (Nerve2 only) came to 19. 245 (QIPGEAPYSFGKKY) [compound 245]: the Count (Nerve2 only) is 18. 246 (QNPWHYPYSLVSTA) [compound 246] yielded a Count (Nerve2 only) of 17. The same measure, in the same setting: with 247 (DVPFRLWNFAVVDS) [compound 247] the figure was 15. Where the note is “Nerve2 only”, 248 (HFAWVVPNDAVKAS) [compound 248] showed a Count of 15. 249 (HFSWEERYRVVHKS) [compound 249]: the Count (Nerve2 only) was determined as 15. Consider 250 (RVPSDEPYSFLRQS) [compound 250], for which the Count (Nerve2 only) is 15. Consider 251 (TQRWAEPYHVFHKS) [compound 251], for which, under “Nerve2 only”, the Count was 15. 252 (HVLRHEPYYVVAQA) [compound 252] showed a Count (Nerve2 only) of 14.
